Data published in US20240398831A1, “COMPOSITIONS COMPRISING SMALL MOLECULE REGULATORS OF TUMOR IMMUNITY AND METHODS OF USING SAME” (Duke University, priority 2021, published 2024).

Legend:
YuMM5.2 cells = test: Quantitative PCR of Wnt5A-β-catenin targets in melanoma tumor cells; assay type: cell-based, mouse
B16F10 tumors = test: B16F10 syngeneic melanoma tumor model in ovariectomized mice (tumor growth, flow cytometry); assay type: in vivo, mouse
Protocol: Tumor models and cells. The mouse B16F10 and Yumm5.2 cell lines were purchased from American Type Culture Collection (ATCC, Manassas, VA). The mouse melanoma cell line BPD6 was established from iBP as described elsewhere (Zhao et al., Immunity 2018, 48, 147-160). B16F10 and BPD6 cells were maintained in Dulbecco's Modified Eagle's Medium (DMEM) supplemented with 8% fetal bovine serum (FBS), 0.1 mM non-essential amino acids (NEAA) and 1 mM sodium pyruvate. YuMM5.2 cells were maintained in DMEM/F12 media supplemented with 10% FBS. The cells were replated 3 times/week at a confluency of 1:10 and were kept in a 37° C. incubator at 5% CO2. For subcutaneous tumor models B16F10 (5×10^4 or 1×10^5), YuMM5.2 (5×10^5), and BPD6 (5×10^5) cells were injected into the right flank of the mice. For iBP mice, tumors were induced with a single intradermal dose of 4-hydroxytamoxifen in DMSO (150 μg/mouse). Tumors were measured thrice weekly using an electronic caliper. Tumor volumes were calculated by the formula V=L×(W×W)/2. For iBP mouse tumors, volumes were calculated by the formula V=L×B×H. For tumor growth rate studies mice were euthanized when the tumors reached a maximum size of 2000 mm^3.
Ovarlectomy and subcutaneous pellet Insertion. Ovariectomy was performed as previously described (Nelson et al., Science 2013, 342, 1094-1098). Eight days prior to tumor inoculation, 7 weeks old C57BL/6J or 5 weeks old (iBP) female mice were subjected to ovariectomy or sham surgery. Mice were anesthetized in an inhalation chamber (2% Isoflurane) and maintained in half the dose of isoflurane (1%) via nose cone throughout the surgical process. Prior to surgery, mice were administered a 5 mg/kg dose of carprofen subcutaneously. The area below the ribs was shaved with an electronic razor and the skin was sterilized by rubbing with betadine and alcohol (3× alternating). A horizontal incision was made through the skin above the ovary fat pad, followed by a vertical incision through the abdominal muscle wall. The ovary was externalized and removed using a cauterizing scissors (or returned if sham). Fat pad was replaced, and muscle walls were opposed and sutured (1-2 stitches). Following suturing, 1 drop of bupivacaine (0.25%) was added on top of the incision site. The skin was opposed, and a wound clip was placed on the incision site. This was repeated for the other ovary. The mouse was then removed from anesthesia and kept in a clean cage and monitored until conscious. The mice were monitored for recovery for 10 days.
Single cell isolation from tumors. Tumors were isolated, minced on a petri dish in media (DMEM+5% FBS), and then enzymatically digested by the addition of 100 μg/mL DNase I (D5025-150KU, Sigma-Aldrich) and 1 mg/mL collagenase (Collagenase A, Cat #10103586001, Sigma-Aldrich) for 30 mins-45 mins. For iBP models, isolated tumors were sliced into large chunks and subjected to mechanical digestion in a gentleMACS Dissociator for 30 seconds twice. Following this, tumors were digested with an enzyme cocktail containing DNase I, collagenase, and hyaluronidase (100 μg/mL) (H6254, Sigma-Aldrich) for 40 mins following a second round of mechanical digestion for 30 seconds (twice). The cells were then filtered through a 40 μm strainer to produce single cell suspensions and the enzymes were diluted by addition of additional media then spun down to remove media. Red blood cells were lysed with the addition of ACK lysis buffer (Cat #A1049201. ThermoFisher Scientific) for 4 mins at room temperature. Following red blood cell lysis, cells were washed with PBS before proceeding to flow cytometry staining or magnetic bead-based isolation.
Flow cytometry staining. Single cells suspensions (10^6 cells in 50 μL) were incubated with Live/dead fixable dead cell stain in PBS for 10 mins at 4° C. Cells were spun down at 1000×g and were incubated with anti-CD16/32 (Catalog #14-0161-85, ThermoFisher Scientific) in flow buffer (10 gms BSA in 1 L PBS+sodium azide) for 15 mins. […]

| Compound | expression of WNT5A-β-catenin targets (YuMM5.2 cells; E2 (1 nM)+fulvestrant (100 nM)) | tumor growth (B16F10 tumors; fulvestrant 25 mg/kg, E2 supplemented mice) | expression of WNT5A-β-catenin targets (YuMM5.2 cells; E2 (1 nM)) | tumor promoting effects of E2, tumor cells co-mixed with BMDM (1:1) (B16F10 tumors; BMDM from Esr1^f/f, LysMCre versus Esr1^f/f) | tumor growth (B16F10 tumors; E2 vs placebo, ovariectomized C57BL/6J) | tumor growth (B16F10 tumors; Esr1^f/f and LysMCre control mice) | tumor growth (B16F10 tumors; Esr1^f/f, LysMCre mice (myeloid ERα knockout)) | infiltration of immune cells (CD45+) (B16F10 tumors; flow cytometry, E2 vs placebo) | percentage of Ly6C+/Ly6G+ MDSCs in tumors (B16F10 tumors; flow cytometry, E2 vs placebo) | ratio of intratumoral M1 (MHCII^hi CD206−) to M2 (MHCII^lo CD206+/hi) macrophages (B16F10 tumors; flow cytometry, E2 vs placebo) |
| --- | --- | --- | --- | --- | --- | --- | --- | --- | --- | --- |
| C[C@]12CC[C@@H]3c4ccc(O)cc4C[C@@H](CCCCCCCCC[S+]([O-])CCCC(F)(F)C(F)(F)F)[C@H]3[C@@H]1CC[C@@H]2O (stereo partly shown) [fulvestrant] | did not change | significantly reduced |  |  |  |  |  |  |  |  |
| 17β-estradiol [E2] |  |  | did not change | significantly compromised | significantly increased | increased | not evident | not impacted by treatment | no changes | decreases |
